# Assay results taken from PubChem BioAssay (NCI).
#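 Results reflect a 48-hour exposure of cells in 96-well plates to compound at five concentrations. GI50: concentration for 50% inhibition of growth. Definition used: TGI = concentration required for complete inhibition of growth.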
# What was measured:
# Test in all cases: NCI anticancer screen, dose series, 48 h
# RXF 393 renal = system: RXF 393 renal
# TK-10 renal = system: TK-10 renal
# MOLT-4 leukemia = system: MOLT-4 leukemia
# HOP-62 NSCLC = system: HOP-62 NSCLC
# NCI-H460 lung = system: NCI-H460 lung
# NCI-H522 lung = system: NCI-H522 lung
# DU-145 prostate = system: DU-145 prostate
# OVCAR-5 ovarian = system: OVCAR-5 ovarian
# SF-295 CNS = system: SF-295 CNS
# UO-31 renal = system: UO-31 renal
# NCI/ADR-RES ovarian = system: NCI/ADR-RES ovarian
# LOX IMVI melanoma = system: LOX IMVI melanoma
# CCRF-CEM leukemia = system: CCRF-CEM leukemia
# UACC-62 melanoma = system: UACC-62 melanoma
# HS 578T breast = system: HS 578T breast
# M14 melanoma = system: M14 melanoma
# IGROV1 ovarian = system: IGROV1 ovarian
# OVCAR-3 ovarian = system: OVCAR-3 ovarian
# SR leukemia = system: SR leukemia
# HCT-15 colon = system: HCT-15 colon
# NCI-H23 lung = system: NCI-H23 lung
# MALME-3M melanoma = system: MALME-3M melanoma
# UACC-257 melanoma = system: UACC-257 melanoma
# KM12 colon = system: KM12 colon
# OVCAR-4 ovarian = system: OVCAR-4 ovarian
# SF-539 CNS = system: SF-539 CNS
# A549 NSCLC = system: A549 NSCLC
# T-47D breast = system: T-47D breast
# SK-MEL-5 melanoma = system: SK-MEL-5 melanoma
# SNB-75 CNS = system: SNB-75 CNS
# MCF7 breast = system: MCF7 breast
# CAKI-1 renal = system: CAKI-1 renal
# A498 renal = system: A498 renal
# HCT-116 colon = system: HCT-116 colon
# SW-620 colon = system: SW-620 colon
# PC-3 prostate = system: PC-3 prostate
# MDA-MB-231 breast = system: MDA-MB-231 breast
# SK-MEL-2 melanoma = system: SK-MEL-2 melanoma
# SF-268 CNS = system: SF-268 CNS
# BT-549 breast = system: BT-549 breast
# HL-60(TB) leukemia = system: HL-60(TB) leukemia
# SK-OV-3 ovarian = system: SK-OV-3 ovarian
# 786-0 renal = system: 786-0 renal
# HOP-92 NSCLC = system: HOP-92 NSCLC
# SNB-19 CNS = system: SNB-19 CNS
# K-562 leukemia = system: K-562 leukemia
# SK-MEL-28 melanoma = system: SK-MEL-28 melanoma
# HCC-2998 colon = system: HCC-2998 colon
# U251 CNS = system: U251 CNS
# NCI-H226 lung = system: NCI-H226 lung
# RPMI-8226 leukemia = system: RPMI-8226 leukemia
# SN12C renal = system: SN12C renal
# HT29 colon = system: HT29 colon
# OVCAR-8 ovarian = system: OVCAR-8 ovarian
# EKVX NSCLC = system: EKVX NSCLC
# COLO 205 colon = system: COLO 205 colon
# ACHN renal = system: ACHN renal
compound,measurement,setting,value
CC(=O)c1ccc2c(c1)C1C=CCC1[C@H](c1cc3c(cc1Br)OCO3)N2 (stereo partly drawn),GI50,RXF 393 renal,1850 nM
same,TGI,RXF 393 renal,3350 nM
same,GI50,TK-10 renal,2040 nM
same,TGI,TK-10 renal,37100 nM
same,GI50,MOLT-4 leukemia,1030 nM
same,TGI,MOLT-4 leukemia,7770 nM
same,GI50,HOP-62 NSCLC,1900 nM
same,TGI,HOP-62 NSCLC,28900 nM
same,GI50,NCI-H460 lung,954 nM
same,TGI,NCI-H460 lung,4810 nM
same,GI50,NCI-H522 lung,840 nM
same,TGI,NCI-H522 lung,4870 nM
same,GI50,DU-145 prostate,893 nM
same,TGI,DU-145 prostate,4440 nM
same,GI50,OVCAR-5 ovarian,3010 nM
same,TGI,OVCAR-5 ovarian,> 38800 nM
same,GI50,SF-295 CNS,382 nM
same,TGI,SF-295 CNS,3070 nM
same,GI50,UO-31 renal,1890 nM
same,TGI,UO-31 renal,34900 nM
same,GI50,NCI/ADR-RES ovarian,1330 nM
same,TGI,NCI/ADR-RES ovarian,4710 nM
same,GI50,LOX IMVI melanoma,1310 nM
same,TGI,LOX IMVI melanoma,2620 nM
same,GI50,CCRF-CEM leukemia,644 nM
same,TGI,CCRF-CEM leukemia,2770 nM
same,GI50,UACC-62 melanoma,1460 nM
same,TGI,UACC-62 melanoma,> 31100 nM
same,GI50,HS 578T breast,713 nM
same,TGI,HS 578T breast,2190 nM
same,GI50,M14 melanoma,765 nM
same,TGI,M14 melanoma,5380 nM
same,GI50,IGROV1 ovarian,1630 nM
same,TGI,IGROV1 ovarian,> 64900 nM
same,GI50,OVCAR-3 ovarian,480 nM
same,TGI,OVCAR-3 ovarian,1080 nM
same,GI50,SR leukemia,519 nM
same,TGI,SR leukemia,6150 nM
same,GI50,HCT-15 colon,1240 nM
same,TGI,HCT-15 colon,20600 nM
same,GI50,NCI-H23 lung,2240 nM
same,TGI,NCI-H23 lung,33400 nM
same,GI50,MALME-3M melanoma,860 nM
same,TGI,MALME-3M melanoma,45800 nM
same,GI50,UACC-257 melanoma,5340 nM
same,TGI,UACC-257 melanoma,27000 nM
same,GI50,KM12 colon,581 nM
same,TGI,KM12 colon,11300 nM
same,GI50,OVCAR-4 ovarian,1630 nM
same,TGI,OVCAR-4 ovarian,> 50200 nM
same,GI50,SF-539 CNS,893 nM
same,TGI,SF-539 CNS,2370 nM
same,GI50,A549 NSCLC,2030 nM
same,TGI,A549 NSCLC,> 34400 nM
same,GI50,T-47D breast,1740 nM
same,TGI,T-47D breast,> 47400 nM
same,GI50,SK-MEL-5 melanoma,1130 nM
same,TGI,SK-MEL-5 melanoma,5810 nM
same,GI50,SNB-75 CNS,500 nM
same,TGI,SNB-75 CNS,7550 nM
same,GI50,MCF7 breast,368 nM
same,TGI,MCF7 breast,18900 nM
same,GI50,CAKI-1 renal,512 nM
same,TGI,CAKI-1 renal,20500 nM
same,GI50,A498 renal,482 nM
same,TGI,A498 renal,2140 nM
same,GI50,HCT-116 colon,1180 nM
same,TGI,HCT-116 colon,14300 nM
same,GI50,SW-620 colon,448 nM
same,TGI,SW-620 colon,> 29200 nM
same,GI50,PC-3 prostate,636 nM
same,TGI,PC-3 prostate,7040 nM
same,GI50,MDA-MB-231 breast,1300 nM
same,TGI,MDA-MB-231 breast,11400 nM
same,GI50,SK-MEL-2 melanoma,1220 nM
same,TGI,SK-MEL-2 melanoma,12400 nM
same,GI50,SF-268 CNS,670 nM
same,TGI,SF-268 CNS,19100 nM
same,GI50,BT-549 breast,716 nM
same,TGI,BT-549 breast,13800 nM
same,GI50,HL-60(TB) leukemia,1300 nM
same,TGI,HL-60(TB) leukemia,5070 nM
same,GI50,SK-OV-3 ovarian,1470 nM
same,TGI,SK-OV-3 ovarian,17800 nM
same,GI50,786-0 renal,1530 nM
same,TGI,786-0 renal,15300 nM
same,GI50,HOP-92 NSCLC,< 38.5 nM
same,TGI,HOP-92 NSCLC,479 nM
same,GI50,SNB-19 CNS,1870 nM
same,TGI,SNB-19 CNS,33200 nM
same,GI50,K-562 leukemia,794 nM
same,GI50,SK-MEL-28 melanoma,626 nM
same,TGI,SK-MEL-28 melanoma,6560 nM
same,GI50,HCC-2998 colon,3840 nM
same,TGI,HCC-2998 colon,10600 nM
same,GI50,U251 CNS,1100 nM
same,TGI,U251 CNS,11900 nM
same,GI50,NCI-H226 lung,1740 nM
same,TGI,NCI-H226 lung,> 32600 nM
same,GI50,RPMI-8226 leukemia,580 nM
same,TGI,RPMI-8226 leukemia,13200 nM
same,GI50,SN12C renal,1640 nM
same,TGI,SN12C renal,> 33000 nM
same,GI50,HT29 colon,653 nM
same,TGI,HT29 colon,13000 nM
same,GI50,OVCAR-8 ovarian,1630 nM
same,TGI,OVCAR-8 ovarian,13000 nM
same,GI50,EKVX NSCLC,1380 nM
same,TGI,EKVX NSCLC,> 52500 nM
same,GI50,COLO 205 colon,1940 nM
same,TGI,COLO 205 colon,5710 nM
same,GI50,ACHN renal,1630 nM
same,TGI,ACHN renal,22100 nM
